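Method: 48-hour compound exposure of cells in 96-well plates, five concentrations, linear interpolation of endpoints. The concentration for 50% growth inhibition is given as GI50. TGI is the concentration that stops growth completely.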

Test systems include OVCAR-5 ovarian; MALME-3M melanoma; SNB-75 CNS; MOLT-4 leukemia; 786-0 renal; CCRF-CEM leukemia; OVCAR-4 ovarian; OVCAR-8 ovarian; SK-MEL-28 melanoma; RXF 393 renal.
Assay in all cases: NCI anticancer screen, dose series, 48 h

With `CC1CC(=O)C(C(O)CC2CC(=O)N(c3ccccc3)C(=O)C2)C(C)C1` (stereo not given), the TGI in the assay with OVCAR-5 ovarian, in the assay on MALME-3M melanoma, in the assay on SNB-75 CNS, with MOLT-4 leukemia, with 786-0 renal and in the assay with CCRF-CEM leukemia was > 100 µM in each case. In addition, the TGI in the assay with OVCAR-4 ovarian, in the assay on OVCAR-8 ovarian, in the assay with SK-MEL-28 melanoma and in the assay on RXF 393 renal was > 100 µM each time.
Consider `COc1cc(/C=C2\C(=O)N(c3c(Cl)cccc3Cl)c3ccccc32)cc(OC)c1O`, for which the GI50 is 8.04 µM in the assay with OVCAR-5 ovarian; 0.537 µM with MALME-3M melanoma; 1.03 µM in the assay on SNB-75 CNS; 0.455 µM in the assay with MOLT-4 leukemia; 1.49 µM in the assay on 786-0 renal; 0.555 µM with CCRF-CEM leukemia. The GI50 is 1.69 µM in the assay on OVCAR-4 ovarian, 0.442 µM with OVCAR-8 ovarian, 1.25 µM in the assay on SK-MEL-28 melanoma and 1.86 µM in the assay on RXF 393 renal. In addition, the TGI amounted to 25 µM with OVCAR-5 ovarian; 16 µM in the assay with MALME-3M melanoma; 17 µM in the assay on SNB-75 CNS; 20.4 µM with MOLT-4 leukemia; 17.4 µM with 786-0 renal; 19.9 µM in the assay with CCRF-CEM leukemia. Also, the TGI turned out to be 12.1 µM with OVCAR-4 ovarian, 19.8 µM in the assay on OVCAR-8 ovarian, 13.5 µM in the assay with SK-MEL-28 melanoma and 11.6 µM in the assay on RXF 393 renal.
For the compound `CC(=O)Nc1ccc(/C=c2\sc3nnc(/C=C/c4ccccc4)n3c2=O)cc1`, the TGI with OVCAR-5 ovarian, in the assay with MALME-3M melanoma, in the assay with SNB-75 CNS, in the assay on MOLT-4 leukemia, in the assay with 786-0 renal and in the assay on CCRF-CEM leukemia was > 50 µM throughout. For the same compound, the TGI in the assay with OVCAR-4 ovarian, in the assay with OVCAR-8 ovarian, in the assay on SK-MEL-28 melanoma and in the assay on RXF 393 renal was > 50 µM in each case.
Take `O=S(=O)(Nc1ccc(Cl)c(C(F)(F)F)c1)c1ccc(-c2cnc(C3CC3)o2)cc1`: the GI50 was 1.51 µM in the assay with OVCAR-5 ovarian; 0.624 µM with MALME-3M melanoma; 0.125 µM in the assay on SNB-75 CNS; 0.622 µM in the assay on MOLT-4 leukemia; 1.1 µM in the assay on 786-0 renal; 0.285 µM in the assay with CCRF-CEM leukemia. In addition, the GI50 with OVCAR-4 ovarian is 1.63 µM; in the assay with OVCAR-8 ovarian, 1.54 µM; in the assay on SK-MEL-28 melanoma, 1.17 µM; in the assay on RXF 393 renal it was 0.381 µM. The TGI in the assay with OVCAR-5 ovarian is 7.24 µM; with MALME-3M melanoma it was 4.41 µM; in the assay with SNB-75 CNS, 1.72 µM; in the assay with MOLT-4 leukemia, 14.1 µM; in the assay with 786-0 renal, 3.58 µM; in the assay with CCRF-CEM leukemia, > 25.1 µM. Also, the TGI in the assay with OVCAR-4 ovarian is 9.75 µM; in the assay on OVCAR-8 ovarian, > 36.2 µM; in the assay with SK-MEL-28 melanoma it was 5.79 µM; with RXF 393 renal, 1.66 µM.
As to `COc1ccc2[nH]cc(/C=C3\C(=O)Nc4ccccc43)c2c1`, the GI50 in the assay with OVCAR-5 ovarian is 11.6 µM; in the assay with MALME-3M melanoma, 11.2 µM; with SNB-75 CNS, 3.14 µM; with MOLT-4 leukemia, 2.33 µM; with 786-0 renal it was 11.9 µM; in the assay on CCRF-CEM leukemia it was 3.94 µM. Further, the GI50 in the assay on OVCAR-4 ovarian was 6.21 µM; in the assay on OVCAR-8 ovarian, 7.02 µM; with SK-MEL-28 melanoma, 10.5 µM; with RXF 393 renal, 2.95 µM. For the same compound, the TGI in the assay with OVCAR-5 ovarian came out at 42 µM; with MALME-3M melanoma it was 49.1 µM; in the assay on SNB-75 CNS, 15.1 µM; in the assay with MOLT-4 leukemia it was 7.4 µM; in the assay with 786-0 renal, 30.2 µM; with CCRF-CEM leukemia, 18.8 µM. The TGI in the assay on OVCAR-4 ovarian worked out at 60.3 µM; with OVCAR-8 ovarian, 21.8 µM; in the assay with SK-MEL-28 melanoma, 42 µM; with RXF 393 renal, 13.3 µM.

The values above are taken from PubChem BioAssay (NCI).
